Converted amounts (≈) assume the structure as drawn. The source made the active and inactive calls. The calls are words filed in the database; no cut-off is given here.
Experiments:
[1] = Cytotoxicity against human PLC/PRF/5 cells; assay type: functional; details: read-out: ED50 (the source's name)
[2] = tested on: KB; experiment: Cytotoxicity against human KB cells; assay type: functional; details: read-out: ED50 (the source's name)
[3] = tested on: Mus musculus; experiment: Protective activity against CCL4-induced hepatotoxicity in ICR mouse assessed as SGOT/SGPT levels at 0.1 to 3 mg/kg, ip

SMILES | EC50 [1] | EC50 [2] | Activity [3]
C[C@@H]1CC[C@]2(O[C@H]3C[C@H]4[C@@H]5CC=C6C[C@@H](O)CC[C@]6(C)[C@H]5CC[C@]4(C)[C@H]3[C@@H]2C)N(C)C1 | 8.02 µg/mL (≈ 18.8 µM) | 6 µg/mL (≈ 14 µM) | 
C[C@@H]1CC[C@@]2(NC1)O[C@H]1C[C@H]3[C@@H]4CC=C5C[C@@H](O[C@@H]6O[C@H](CO)[C@@H](O[C@@H]7O[C@@H](C)[C@H](O)[C@@H](O)[C@H]7O)[C@H](O)[C@H]6O)CC[C@]5(C)[C@H]4CC[C@]3(C)[C@H]1[C@@H]2C |  |  | Active
C[C@@H]1CC[C@H]([C@@H](C)C2[C@H](O)C[C@H]3[C@@H]4CC=C5C[C@@H](O[C@@H]6O[C@H](CO)[C@@H](O)[C@H](O)[C@H]6O)CC[C@]5(C)[C@H]4CC[C@]23C)NC1 (some centres undefined) |  |  | Active
C[C@H]1CC[C@H]([C@@H](C)[C@H]2[C@H](O)C[C@H]3[C@@H]4CC=C5C[C@@H](O[C@@H]6O[C@H](CO)[C@@H](O)[C@H](O)[C@H]6O)CC[C@]5(C)[C@H]4CC[C@]23C)NC1 [CAPSICASTRINE] | 1.78 µg/mL (≈ 3.08 µM) |  | 
C[C@H]1CC[C@H]([C@@H](C)[C@H]2[C@H](O)C[C@H]3[C@@H]4CC=C5C[C@@H](O)CC[C@]5(C)[C@H]4CC[C@]23C)NC1 [CAPSIMINE] | 1.97 µg/mL (≈ 4.74 µM) | 1.35 µg/mL (≈ 3.25 µM) | Active
C[C@H]1CC=C([C@@H](C)[C@H]2[C@H](O)C[C@H]3[C@@H]4CC=C5C[C@@H](O)CC[C@]5(C)[C@H]4CC[C@]23C)NC1 [ETIOLINE] | 2.67 µg/mL (≈ 6.45 µM) | 11.2 µg/mL (≈ 27.1 µM) | 
O=C1C[C@@H](c2ccc(O)cc2)Oc2cc(O)cc(O)c21 [NARINGENIN] | 2.47 µg/mL (≈ 9.07 µM) | 2.71 µg/mL (≈ 9.95 µM) | 
C[C@@H]1CC[C@@]2(NC1)O[C@H]1C[C@H]3[C@@H]4CC=C5C[C@@H](O[C@@H]6O[C@H](CO)[C@H](O)[C@H](O[C@@H]7O[C@H](CO)[C@@H](O)[C@H](O)[C@H]7O)[C@H]6O[C@@H]6O[C@@H](C)[C@H](O)[C@@H](O)[C@H]6O)CC[C@]5(C)[C@H]4CC[C@]3(C)[C@H]1[C@@H]2C [SOLASONINE] | 7.88 µg/mL (≈ 8.91 µM) | 11.4 µg/mL (≈ 12.9 µM) | 
